Measurements reported in ChEMBL document CHEMBL5291721, “A preclinical secondary pharmacology resource illuminates target-adverse drug reaction associations of marketed drugs” (Nat Commun, 2023).

What was measured:
[1] = target: T1, Alpha-1A adrenergic receptor (Homo sapiens, UniProt P35348); type: functional, cell-based
T1 sequence (P35348 whole entry): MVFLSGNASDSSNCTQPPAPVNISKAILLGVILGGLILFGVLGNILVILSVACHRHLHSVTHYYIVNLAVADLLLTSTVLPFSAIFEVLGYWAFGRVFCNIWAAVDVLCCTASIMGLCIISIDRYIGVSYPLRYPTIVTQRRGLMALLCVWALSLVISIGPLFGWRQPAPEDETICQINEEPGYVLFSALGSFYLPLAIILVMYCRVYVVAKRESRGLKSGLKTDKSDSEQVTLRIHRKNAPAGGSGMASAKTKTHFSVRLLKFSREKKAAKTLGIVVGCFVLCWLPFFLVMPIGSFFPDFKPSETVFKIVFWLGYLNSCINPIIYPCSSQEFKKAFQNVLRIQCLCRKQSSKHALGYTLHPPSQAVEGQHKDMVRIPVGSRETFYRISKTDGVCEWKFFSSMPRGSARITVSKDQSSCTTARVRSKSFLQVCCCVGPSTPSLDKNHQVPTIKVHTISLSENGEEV

Estrogen receptor = target: T2, Estrogen receptor (Homo sapiens, UniProt P03372)
T2 sequence (P03372 whole entry): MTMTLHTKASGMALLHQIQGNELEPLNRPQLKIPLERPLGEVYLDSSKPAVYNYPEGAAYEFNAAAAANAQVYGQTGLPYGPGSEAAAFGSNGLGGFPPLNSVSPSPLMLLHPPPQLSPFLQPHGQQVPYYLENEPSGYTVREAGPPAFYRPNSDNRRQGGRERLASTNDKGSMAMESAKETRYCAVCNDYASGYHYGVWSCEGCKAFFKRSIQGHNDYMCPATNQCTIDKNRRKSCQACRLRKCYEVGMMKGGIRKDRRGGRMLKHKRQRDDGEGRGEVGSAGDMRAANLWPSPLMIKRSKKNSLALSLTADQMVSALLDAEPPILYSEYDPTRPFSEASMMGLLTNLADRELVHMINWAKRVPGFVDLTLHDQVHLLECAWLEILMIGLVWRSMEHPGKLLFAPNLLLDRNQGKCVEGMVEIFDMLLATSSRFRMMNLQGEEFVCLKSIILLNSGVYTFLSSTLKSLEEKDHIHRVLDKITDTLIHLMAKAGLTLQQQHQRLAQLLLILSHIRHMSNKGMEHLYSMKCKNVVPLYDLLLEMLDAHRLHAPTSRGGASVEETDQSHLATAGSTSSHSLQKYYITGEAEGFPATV

Glucocorticoid receptor = target: T3, Glucocorticoid receptor (Homo sapiens, UniProt P04150)
T3 sequence (P04150 whole entry): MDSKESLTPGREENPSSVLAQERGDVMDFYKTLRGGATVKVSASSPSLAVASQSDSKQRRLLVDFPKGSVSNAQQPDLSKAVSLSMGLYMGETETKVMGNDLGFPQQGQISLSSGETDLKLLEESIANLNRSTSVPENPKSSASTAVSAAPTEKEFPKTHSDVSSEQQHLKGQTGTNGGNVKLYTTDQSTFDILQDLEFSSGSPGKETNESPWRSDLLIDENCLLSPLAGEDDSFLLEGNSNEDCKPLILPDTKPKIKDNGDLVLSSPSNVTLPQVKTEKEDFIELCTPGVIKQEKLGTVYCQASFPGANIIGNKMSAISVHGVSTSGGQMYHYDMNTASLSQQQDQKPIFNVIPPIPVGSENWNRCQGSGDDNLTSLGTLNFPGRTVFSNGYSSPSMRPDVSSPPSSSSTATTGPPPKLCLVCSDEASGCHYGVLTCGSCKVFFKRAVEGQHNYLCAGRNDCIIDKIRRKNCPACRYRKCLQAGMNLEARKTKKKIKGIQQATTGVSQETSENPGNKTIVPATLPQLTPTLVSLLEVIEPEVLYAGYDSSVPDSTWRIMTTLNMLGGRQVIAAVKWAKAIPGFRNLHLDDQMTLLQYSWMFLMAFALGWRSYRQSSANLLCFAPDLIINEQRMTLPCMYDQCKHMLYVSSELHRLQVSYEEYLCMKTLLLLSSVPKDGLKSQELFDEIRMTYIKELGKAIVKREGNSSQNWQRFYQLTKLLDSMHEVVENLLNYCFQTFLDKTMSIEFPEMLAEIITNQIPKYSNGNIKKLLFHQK

D(3) dopamine receptor = D(3) dopamine receptor (Homo sapiens, UniProt P35462)
Chain of D(3) dopamine receptor (P35462 whole entry): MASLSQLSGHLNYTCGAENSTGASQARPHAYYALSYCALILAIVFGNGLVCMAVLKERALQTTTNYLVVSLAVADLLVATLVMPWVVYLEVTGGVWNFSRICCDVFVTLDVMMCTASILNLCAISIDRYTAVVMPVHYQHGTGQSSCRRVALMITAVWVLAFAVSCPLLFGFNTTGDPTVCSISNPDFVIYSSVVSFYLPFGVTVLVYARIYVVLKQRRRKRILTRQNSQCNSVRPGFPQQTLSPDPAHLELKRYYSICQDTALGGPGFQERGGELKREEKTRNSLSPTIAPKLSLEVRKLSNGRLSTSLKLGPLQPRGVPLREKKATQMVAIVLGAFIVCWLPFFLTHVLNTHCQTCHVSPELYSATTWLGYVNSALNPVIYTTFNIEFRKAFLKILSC

[2] = target: Gamma-aminobutyric acid receptor subunit alpha-1 (Rattus norvegicus, UniProt P62813)
Chain of Gamma-aminobutyric acid receptor subunit alpha-1 (P62813 whole entry): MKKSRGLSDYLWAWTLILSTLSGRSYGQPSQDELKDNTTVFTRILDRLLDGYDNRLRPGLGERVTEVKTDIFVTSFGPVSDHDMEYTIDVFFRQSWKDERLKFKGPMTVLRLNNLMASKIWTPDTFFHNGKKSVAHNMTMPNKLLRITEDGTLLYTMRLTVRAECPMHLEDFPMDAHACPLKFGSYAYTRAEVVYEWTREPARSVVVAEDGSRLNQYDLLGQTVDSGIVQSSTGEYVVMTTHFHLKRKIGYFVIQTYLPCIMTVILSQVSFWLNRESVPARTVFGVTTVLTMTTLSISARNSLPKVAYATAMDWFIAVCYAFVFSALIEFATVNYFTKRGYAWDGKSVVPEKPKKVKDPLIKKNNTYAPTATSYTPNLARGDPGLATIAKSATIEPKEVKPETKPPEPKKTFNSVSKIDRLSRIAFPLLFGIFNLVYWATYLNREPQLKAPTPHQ

B2 bradykinin receptor = target: T4, B2 bradykinin receptor (Homo sapiens, UniProt P30411)
T4 sequence (P30411 whole entry): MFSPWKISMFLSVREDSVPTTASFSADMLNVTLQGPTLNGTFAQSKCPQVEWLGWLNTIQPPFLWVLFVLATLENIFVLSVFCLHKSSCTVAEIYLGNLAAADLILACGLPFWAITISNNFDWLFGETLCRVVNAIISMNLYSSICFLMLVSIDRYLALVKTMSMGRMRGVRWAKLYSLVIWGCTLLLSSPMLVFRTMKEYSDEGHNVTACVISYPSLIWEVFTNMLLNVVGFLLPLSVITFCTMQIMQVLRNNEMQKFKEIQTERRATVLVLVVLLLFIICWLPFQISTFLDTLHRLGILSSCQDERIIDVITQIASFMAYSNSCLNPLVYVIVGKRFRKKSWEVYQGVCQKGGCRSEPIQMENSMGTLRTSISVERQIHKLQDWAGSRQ

Melanocortin receptor 3 = Melanocortin receptor 3 (Homo sapiens, UniProt P41968)
Chain of Melanocortin receptor 3 (P41968 whole entry): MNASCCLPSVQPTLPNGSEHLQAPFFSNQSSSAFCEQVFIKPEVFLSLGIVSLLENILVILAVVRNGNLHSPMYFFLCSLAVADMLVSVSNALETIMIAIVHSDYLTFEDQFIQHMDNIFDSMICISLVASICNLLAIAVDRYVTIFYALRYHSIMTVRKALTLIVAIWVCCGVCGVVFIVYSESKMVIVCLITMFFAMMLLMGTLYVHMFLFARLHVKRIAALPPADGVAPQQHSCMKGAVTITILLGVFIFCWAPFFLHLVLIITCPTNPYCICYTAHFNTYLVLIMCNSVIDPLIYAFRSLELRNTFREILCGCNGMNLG

Adenosine receptor A1 = target: T5, Adenosine receptor A1 (Homo sapiens, UniProt P30542)
T5 sequence (P30542 whole entry): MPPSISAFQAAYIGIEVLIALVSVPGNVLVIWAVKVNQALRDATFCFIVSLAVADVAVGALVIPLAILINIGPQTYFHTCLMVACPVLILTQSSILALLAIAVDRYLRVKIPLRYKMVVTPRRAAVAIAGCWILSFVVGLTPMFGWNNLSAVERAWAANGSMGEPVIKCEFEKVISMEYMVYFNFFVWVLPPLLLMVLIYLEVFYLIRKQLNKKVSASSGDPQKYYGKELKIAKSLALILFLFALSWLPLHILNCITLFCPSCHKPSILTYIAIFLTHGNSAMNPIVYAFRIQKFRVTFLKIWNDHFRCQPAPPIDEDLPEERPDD
Also: assay procedure not described here.

| SMILES | AC50 [1] [µM] | AC50 (Estrogen receptor) [µM] | also measured |
| --- | --- | --- | --- |
| Cc1cc2c(cc1S(N)(=O)=O)S(=O)(=O)CCC2 | > 30 | > 30 | – |
| C[C@H](N[C@@H](CCc1ccccc1)C(=O)O)C(=O)N1Cc2ccccc2C[C@H]1C(=O)O | > 30 | > 30 | – |
| O=C(O)[C@@H]1C[C@@H](O)CN1 | > 30 | > 30 | – |
| CC1(C)S[C@@H]2[C@H](/N=C/N3CCCCCC3)C(=O)N2[C@H]1C(=O)O [AMDINOCILLIN] | > 30 | > 30 | – |
| CC(=O)[C@]1(N)Cc2c(O)c3c(c(O)c2[C@@H](O[C@H]2C[C@H](O)[C@H](O)CO2)C1)C(=O)c1ccccc1C3=O [AMRUBICIN] | 20.1 | > 30 | – |
| NC(=O)[C@@H]1CC[C@@H]2CN1C(=O)N2OS(=O)(=O)O [AVIBACTAM] | > 30 | > 30 | – |
| CC(=O)OC[C@H]1O[C@@H](n2ncc(=O)[nH]c2=O)[C@H](OC(C)=O)[C@@H]1OC(C)=O [AZARIBINE] | > 30 | > 30 | – |
| O=C(/C=C/c1cccc(S(=O)(=O)Nc2ccccc2)c1)NO [BELINOSTAT] | – | 27.9 | AC50 (Glucocorticoid receptor): > 30 µM; AC50 (D(3) dopamine receptor): > 30 µM; AC50 [2]: > 10 µM; AC50 (B2 bradykinin receptor): > 30 µM; AC50 (Melanocortin receptor 3): > 30 µM; AC50 (Adenosine receptor A1): > 30 µM |
| CC(O)(CS(=O)(=O)c1ccc(F)cc1)C(=O)Nc1ccc(C#N)c(C(F)(F)F)c1 (stereo unspecified) [BICALUTAMIDE] | > 10 | – | AC50 (Glucocorticoid receptor): > 30 µM; AC50 (D(3) dopamine receptor): > 10 µM; AC50 [2]: > 10 µM; AC50 (B2 bradykinin receptor): > 30 µM; AC50 (Melanocortin receptor 3): > 30 µM; AC50 (Adenosine receptor A1): > 30 µM |
| CC(C)(C)NC(=O)N[C@H](C(=O)N1C[C@H]2[C@@H]([C@H]1C(=O)NC(CC1CCC1)C(=O)C(N)=O)C2(C)C)C(C)(C)C (stereo partly specified) [BOCEPREVIR] | > 30 | > 30 | – |
| NC[C@H]1CC[C@H](C(=O)Oc2ccc(CCC(=O)O)cc2)CC1 [CETRAXATE] | – | > 30 | AC50 (D(3) dopamine receptor): > 30 µM; AC50 [2]: > 30 µM |
| C=C1CC[C@H](O)C/C1=C/C=C1\CCC[C@]2(C)[C@@H]([C@H](C)CCCC(C)C)CC[C@@H]12 [CHOLECALCIFEROL] | > 30 | > 30 | – |
| C[C@H](CCC(=O)O)[C@H]1CC[C@H]2[C@@H]3[C@H](O)C[C@@H]4C[C@H](O)CC[C@]4(C)[C@H]3C[C@H](O)[C@]12C [CHOLIC ACID] | > 30 | > 30 | – |
| Cc1ncc2c(c1O)COC2c1ccc(Cl)cc1 (stereo unspecified) [CICLETANINE] | > 30 | > 30 | – |
| Cc1cn([C@H]2O[C@@H](CO)[C@H](O)[C@H]2F)c(=O)[nH]c1=O [CLEVUDINE] | > 30 | – | – |
| N#Cc1ccc(Oc2ccc3c(c2)COB3O)cc1 [CRISABOROLE] | > 30 | > 30 | – |
| CC(=O)O[C@]1(C(C)=O)CC[C@H]2[C@@H]3C=C(Cl)C4=CC(=O)[C@@H]5C[C@@H]5[C@]4(C)[C@H]3CC[C@@]21C [CYPROTERONE ACETATE] | > 30 | – | AC50 (D(3) dopamine receptor): > 30 µM; AC50 [2]: > 10 µM; AC50 (B2 bradykinin receptor): > 30 µM; AC50 (Melanocortin receptor 3): > 30 µM; AC50 (Adenosine receptor A1): > 30 µM |
| CC(=O)[C@H]1CC[C@H]2[C@@H]3C=CC4=CC(=O)CC[C@@]4(C)[C@@H]3CC[C@]12C [DYDROGESTERONE] | > 30 | – | – |

| SMILES | AC50 [1] [µM] | AC50 (Estrogen receptor) [µM] | also measured |
| --- | --- | --- | --- |
| CC(=O)O[C@H]1Cc2ccccc2N(C(N)=O)c2ccccc21 [ESLICARBAZEPINE ACETATE] | > 30 | > 30 | – |
| CC(O)(P(=O)(O)O)P(=O)(O)O [ETIDRONIC ACID] | > 30 | – | – |
| C[C@@H]1C[C@H]2[C@@H]3C[C@H](F)C4=CC(=O)C=C[C@]4(C)[C@@]3(F)[C@@H](O)C[C@]2(C)[C@@]1(OC(=O)c1ccco1)C(=O)SCF [FLUTICASONE FUROATE] | > 30 | – | AC50 (D(3) dopamine receptor): > 30 µM; AC50 [2]: > 30 µM; AC50 (B2 bradykinin receptor): > 10 µM; AC50 (Melanocortin receptor 3): > 10 µM; AC50 (Adenosine receptor A1): > 10 µM |
| Cc1ccc(S(=O)(=O)NC(=O)NC2CCCCC2)cc1 [GLYCYCLAMIDE] | > 30 | > 30 | – |
| CN1CCCN(C(c2ccccc2)c2ccc(Cl)cc2)CC1 (stereo unspecified) [HOMOCHLORCYCLIZINE] | > 30 | > 30 | – |
| CC(=O)OCC(=O)[C@@]1(O)CC[C@H]2[C@@H]3CCC4=CC(=O)CC[C@]4(C)[C@H]3[C@@H](O)C[C@@]21C [HYDROCORTISONE ACETATE] | > 30 | – | – |
| CC(COc1ccccc1)NC(C)C(O)c1ccc(O)cc1 (stereo unspecified) [ISOXSUPRINE] | > 30 | > 30 | – |
| O=C(CCC/C=C\C[C@@H]1[C@@H](CC[C@@H](O)CCc2ccccc2)[C@H](O)C[C@@H]1O)OCCCCO[N+](=O)[O-] [LATANOPROSTENE BUNOD] | > 30 | > 30 | – |
| Cc1oc(=O)oc1COC(=O)[C@@H]1N2C(=O)[C@@H](NC(=O)[C@H](N)c3ccccc3)[C@H]2SC1(C)C [LENAMPICILLIN] | > 30 | > 30 | – |
| COc1ccc(OC)c(C(O)C(C)N)c1 (stereo unspecified) [METHOXAMINE] | 0.021 | > 30 | – |
| CC1(CCN2CCCCC2)C(=O)CCc2ccccc21 (stereo unspecified) [NEPINALONE] | > 30 | > 30 | – |
| COC(=O)C[C@](O)(CCCC(C)(C)O)C(=O)O[C@@H]1C(OC)=C[C@]23CCCN2CCc2cc4c(cc2[C@H]13)OCO4 [OMACETAXINE MEPESUCCINATE] | > 30 | > 30 | – |
| COc1cccc(C(=O)CCN[C@@H](C)[C@H](O)c2ccccc2)c1 [OXYFEDRINE] | > 30 | – | – |
| CC[N+](C)(CC)CCOC(=O)C(O)(c1ccccc1)C1CCCCC1 (stereo unspecified) [OXYPHENONIUM] | > 30 | > 30 | – |
| COC(=O)[C@H]1[C@H]2C[C@@H]3c4[nH]c5cc(OC)ccc5c4CCN3C[C@H]2C[C@@H](OC(=O)c2cc(OC)c(OC)c(OC)c2)[C@@H]1OC [RESERPINE] | > 30 | – | AC50 (Glucocorticoid receptor): > 10 µM; AC50 (D(3) dopamine receptor): > 30 µM; AC50 [2]: > 10 µM; AC50 (B2 bradykinin receptor): > 10 µM; AC50 (Melanocortin receptor 3): > 10 µM; AC50 (Adenosine receptor A1): > 30 µM |
| O=S1(=O)CCN(CN2CCS(=O)(=O)NC2)CN1 [TAUROLIDINE] | – | > 30 | AC50 (Glucocorticoid receptor): > 10 µM; AC50 (D(3) dopamine receptor): 27 µM; AC50 [2]: > 30 µM; AC50 (Melanocortin receptor 3): > 30 µM |
| COc1ccc2c(C(=S)N(C)CC(=O)O)cccc2c1C(F)(F)F [TOLRESTAT] | – | > 30 | – |
